Results from ChEMBL document CHEMBL1151551, “An acid-cleavable linker stable at neutral pH that releases doxorubicin at lysosomal pH” (Bioorg Med Chem Lett, 1993).

How the values were obtained:
[1] = species on record: Mus musculus; assay: The compound was evaluated for half life (release of DOX) […] at 37 degree Celsius at the pH 7.; format: ADME
[2] = species on record: Mus musculus; assay: The compound was evaluated for half life (release of DOX) […] at 37 degree Celsius at the pH 5.; format: ADME

**Q.** For `CCCCNC(=O)C1(C)CC(C)(C(=O)O)CC(C)(C(=O)NC2CC(O[C@H]3C[C@](O)(C(=O)CO)Cc4c(O)c5c(c(O)c43)C(=O)c3c(OC)cccc3C5=O)OC(C)C2O)C1` (some centres not stated), which T1/2 [1] is on record?
**A.** The T1/2 was > 160 days.

**Q.** What about the T1/2 [2] of the same compound?
**A.** The T1/2 was 90 h.

**Q.** `CCCCN(C)C(=O)C1(C)CC(C)(C(=O)O)CC(C)(C(=O)N(C(=O)C(F)(F)F)C2CC(O[C@H]3C[C@](O)(C(=O)CO)Cc4c(O)c5c(c(O)c43)C(=O)c3c(OC)cccc3C5=O)OC(C)C2O)C1` (some centres not stated) was tested. Which T1/2 [1] did it give?
**A.** The T1/2 was > 174 days.

**Q.** What about the T1/2 [2] of the same compound?
**A.** Its T1/2 is > 174 h.

**Q.** Which T1/2 [2] does the source give for `COc1cccc2c1C(=O)c1c(O)c3c(c(O)c1C2=O)C[C@@](O)(C(=O)CO)C[C@@H]3OC1CC(NC(=O)C2(C)CC(C)(C(=O)O)CC(C)(C(=O)O)C2)C(O)C(C)O1` (some centres not stated) here?
**A.** Its T1/2 is 30 h.

**Q.** `COC(=O)C1(C)CC(C)(C(=O)O)CC(C)(C(=O)NC2CC(O[C@H]3C[C@](O)(C(=O)CO)Cc4c(O)c5c(c(O)c43)C(=O)c3c(OC)cccc3C5=O)OC(C)C2O)C1` (some centres not stated) was tested. Which T1/2 [1] did it give?
**A.** The T1/2 was > 100 days.

**Q.** And the T1/2 [2]?
**A.** The T1/2 was 40 h.
